# Results reported in patent US9115086B2, “Therapeutic compositions and related methods of use” (AGIOS PHARMACEUTICALS, INC., priority 2009, dated 2015).
# Target: T1, PKM2 (Homo sapiens, UniProt P14618)
# T1 construct: PKM2 stock enzyme solution was diluted in Reaction Buffer
# Experiment: PKM2 Assay (activation, LDH-coupled NADH absorbance at 340 nm)
# Assay type: biochemical
# Settings: activation of PKM2
# Protocol: • PKM2 stock enzyme solution was diluted in Reaction Buffer • 2 μL of compound was added into each well first, and then 180 μL of the Reaction Mix was added. • Reaction mixture with compound (without ADP) were incubated for 30 minutes at 4° C. • Plates were re-equilibrated to room temperature prior to adding 20 μL ADP to initiate the reaction. • Reaction progress was measured as changes in absorbance at 340 nm wavelength at room temperature (25° C.) Reaction Mix: PKM2 (50 ng/well), ADP (0.7 mM), PEP (0.15 mM), NADH (180 μM), LDH (2 units) in Reaction Buffer Reaction Buffer: 100 mM KCl, 50 mM Tris pH 7.5, 5 mM MgCl2, 1 mM DTT, 0.03% BSA.
# T1 sequence (P14618 whole entry): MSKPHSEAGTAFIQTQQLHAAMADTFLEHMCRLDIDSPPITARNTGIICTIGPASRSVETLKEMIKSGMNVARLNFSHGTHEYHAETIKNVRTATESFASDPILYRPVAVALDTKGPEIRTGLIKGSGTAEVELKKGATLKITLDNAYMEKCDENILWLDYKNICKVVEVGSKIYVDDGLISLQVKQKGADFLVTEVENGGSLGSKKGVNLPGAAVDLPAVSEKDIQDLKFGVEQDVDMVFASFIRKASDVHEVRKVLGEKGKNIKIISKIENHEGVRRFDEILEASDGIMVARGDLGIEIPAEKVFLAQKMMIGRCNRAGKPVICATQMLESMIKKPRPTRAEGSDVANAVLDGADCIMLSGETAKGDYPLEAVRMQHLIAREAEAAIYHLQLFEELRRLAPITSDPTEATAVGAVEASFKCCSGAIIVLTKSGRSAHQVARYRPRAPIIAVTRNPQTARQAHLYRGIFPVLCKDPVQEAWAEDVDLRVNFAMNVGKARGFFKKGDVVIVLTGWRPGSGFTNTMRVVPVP
row,SMILES,EC50 [µM]
1,CC(C)(C)OCC(=O)N1CCN(S(=O)(=O)c2ccc3sc(=O)sc3c2)CC1,10 to 100
2,O=C(COc1ccc(-n2cnnn2)cc1)N1CCN(S(=O)(=O)c2cccn2-c2ncc(C(F)(F)F)cc2Cl)CC1,10 to 100
3,O=C(Cc1ccc(C(F)(F)F)cc1)N1CCN(S(=O)(=O)c2cc(C(F)(F)F)cc(C(F)(F)F)c2)CC1,> 100
4,O=C(Cc1ccc(C(F)(F)F)cc1)N1CCN(S(=O)(=O)c2cc(Cl)cc(Cl)c2)CC1,10 to 100
5,COc1ccc(Cl)cc1S(=O)(=O)N1CCN(C(=O)COc2ccc(-n3cnnn3)cc2)CC1,10 to 100
6,O=C(COc1ccc(-n2cnnn2)cc1)N1CCN(S(=O)(=O)c2cccc3cccnc23)CC1,10 to 100
7,O=C(C1CC1c1ccc(C(F)(F)F)cc1)N1CCN(S(=O)(=O)c2ccc3c(c2)OCCO3)CC1 (stereo not drawn),< 10
8,O=C(Cc1ccc(C(F)(F)F)cc1)N1CCN(S(=O)(=O)c2ccc3ccccc3c2)CC1,< 10
9,O=C(CC1CC1)N1CCN(S(=O)(=O)c2ccc3ccccc3c2)CC1,< 10
10,O=C(COc1cccnc1)N1CCN(S(=O)(=O)c2ccc3ccccc3c2)CC1,< 10
11,O=C(CNc1ccccc1)N1CCN(S(=O)(=O)c2ccc3ccccc3c2)CC1,< 10
12,O=C(COc1ccccc1)N1CCN(S(=O)(=O)c2ccc(F)cc2)CC1,< 10
13,O=C(OCc1cccnc1)N1CCN(S(=O)(=O)c2ccc3ccccc3c2)CC1,< 10
14,Cc1cc(C)cc(OCC(=O)N2CCN(S(=O)(=O)c3ccc4ccccc4c3)CC2)c1,< 10
15,COc1ccc(OCC(=O)N2CCN(S(=O)(=O)c3ccc4ccccc4c3)CC2)cc1,< 10
16,O=C(COc1ccccc1)N1CCN(S(=O)(=O)c2cccc3ccccc23)CC1,< 10
17,CN1C(=O)COc2ccc(S(=O)(=O)N3CCN(C(=O)COc4ccccc4)CC3)cc21,10 to 100
18,CN1C(=O)C(=O)c2cc(S(=O)(=O)N3CCN(C(=O)COc4ccccc4)CC3)ccc21,10 to 100
19,O=C(COc1ccc(C(F)(F)F)cc1)N1CCN(S(=O)(=O)c2ccc3c(c2)OCCO3)CC1,> 100
20,O=C(COc1ccccc1)N1CCN(S(=O)(=O)c2cccc3cccnc23)CC1,< 10
21,O=C(Cc1ccc(C(F)(F)F)cc1)N1CCN(S(=O)(=O)c2cccc3ccccc23)CC1,< 10

# Results, then the compound that gave them:
row,EC50 [µM],SMILES
1,< 10,O=C(COc1ccc(-n2cnnn2)cc1)N1CCN(S(=O)(=O)c2ccc3ccccc3c2)CC1
2,< 10,O=C(COc1ccccc1)N1CCN(S(=O)(=O)c2ccc3ccccc3c2)CC1
3,< 10,Cc1ccc(OCC(=O)N2CCN(S(=O)(=O)c3ccc4ccccc4c3)CC2)cc1
4,< 10,COC(=O)c1ccc(OCC(=O)N2CCN(S(=O)(=O)c3ccc4ccccc4c3)CC2)cc1
5,< 10,O=C(C1CCCCC1)N1CCN(S(=O)(=O)c2ccc3ccccc3c2)CC1
6,< 10,O=C(C1CCCCC1)N1CCN(S(=O)(=O)c2cccc(C(F)(F)F)c2)CC1
7,< 10,O=C(OCc1ccccc1)N1CCN(S(=O)(=O)c2ccc3ccccc3c2)CC1
8,< 10,O=C(CCc1ccccc1)N1CCN(S(=O)(=O)c2ccc3ccccc3c2)CC1
9,< 10,O=C(OCc1ccccc1)N1CCN(S(=O)(=O)c2ccccc2)CC1
10,< 10,O=C(CCc1ccc(C(F)(F)F)cc1)N1CCN(S(=O)(=O)c2ccc3ccccc3c2)CC1
11,< 10,O=C(COc1ccccc1)N1CCN(S(=O)(=O)c2ccccc2)CC1
12,< 10,O=C(COc1ccc(-n2cnnn2)cc1)N1CCN(S(=O)(=O)c2c(F)cccc2F)CC1
13,< 10,O=C(COc1ccc(-n2cnnn2)cc1)N1CCN(S(=O)(=O)c2ccccc2)CC1
14,< 10,O=C(COc1ccc(-n2cnnn2)cc1)N1CCN(S(=O)(=O)c2ccc(F)cc2)CC1
15,< 10,O=C(COc1ccc(-n2cnnn2)cc1)N1CCN(S(=O)(=O)c2cccc3ccccc23)CC1
16,< 10,Cc1ccc(SCC(=O)N2CCN(S(=O)(=O)c3ccc4ccccc4c3)CC2)cc1
17,< 10,O=C(CSc1ccc(Cl)cc1Cl)N1CCN(S(=O)(=O)c2ccc3ccccc3c2)CC1
18,< 10,O=C(CSc1ccc(F)cc1)N1CCN(S(=O)(=O)c2ccc3ccccc3c2)CC1
19,< 10,O=C(COCc1ccccc1)N1CCN(S(=O)(=O)c2ccc3ccccc3c2)CC1
20,< 10,O=C(C1CC1c1ccc(C(F)(F)F)cc1)N1CCN(S(=O)(=O)c2ccc3ccccc3c2)CC1 (stereo not drawn)
21,< 10,O=C(C1CC1c1ccc(C(F)(F)F)cc1)N1CCN(S(=O)(=O)c2cc(C3CC3)cc(C(F)(F)F)c2)CC1 (stereo not drawn)
